The values that follow come from US11279714B2, “Anti-infective compounds” (priority 2014, dated 2022).

≈ marks a conversion by molar mass, not a printed value.

For data set [1], the system named is Raw 264.7 cells infected with H37Rv-GFP. In words: microbe, parasite or virus in culture. In kind it is cell-based, M. tuberculosis. The conditions noted are these: Mycobacterium tuberculosis, H37RV, 120 h; read-out: QIM (MIC50).
For data set [2], the system named is M. tuberculosis H37Rv expressing the green fluorescent protein (H37Rv-GFP). In words: microbe, parasite or virus in culture. In kind it is cell-based. Conditions: Mycobacterium tuberculosis, H37RV, 120 h; read-out: QUM (MIC50).

`O=C(Nc1ccc(F)nc1)c1cc2sc(N3CCOCC3)nc2s1` [Compound 84]: the melting point (in general, the temperature of the solid-liquid transition) stood at 262.3 °C. In addition, the MIC50 in data set [1] was < 1 µM. Besides, in data set [2], the MIC50 was < 1 µM.

`COc1ccc(NC(=O)c2cc3sc(N4CCC(C(N)=O)CC4)nc3s2)cc1` [Compound 126] showed a melting point of 276.1 °C. The MIC50 in data set [1] was > 20 µM. Besides, the MIC50 in data set [2] was 1 to 20 µM (≈ 0.417 to 8.33 µg/mL).

`Cc1nc2cc(NC(=O)c3cc4sc(N5CCOC(c6ccccc6)C5)nc4s3)ccc2o1` (stereo not drawn) [Compound 174] yielded a melting point of 223.5 °C. The MIC50 in data set [1] was < 1 µM. For the same compound, the MIC50 in data set [2] lay within 1 to 20 µM (≈ 0.477 to 9.53 µg/mL).

With `Cc1nc2cc(Cl)c(NC(=O)c3cc4sc(N5CCOCC5)nc4s3)cc2o1` [Compound 147], the melting point is 275.3 °C. Besides, the MIC50 in data set [1] is > 20 µM. Besides, the MIC50 in data set [2] is > 20 µM.
